Reference: patent publication US10233188B2, “CDK2/4/6 inhibitors” (priority 2016, dated 2019)

Legend:
CDK6/Cyclin D1 = CDK6/Cyclin D1 (Homo sapiens (Human), UniProt Q00534); assay: biochemical; details: CDK6_Ki (nM), non-phosphorylated CDK6/Cyclin D1, 2 mM ATP, Morrison fit
CDK2/Cyclin E1 = CDK2/Cyclin E1 (Homo sapiens (Human), UniProt P24941); assay: biochemical; details: CDK2_Ki (nM), phosphorylated CDK2/Cyclin E1, 150 μM ATP, Morrison tight-binding fit
Experimental: The assay was initiated with the addition of ATP, following a fifteen minutes pre-incubation of enzyme and inhibitor at room temperature in the reaction mixture. The reaction was stopped after 45 minutes at room temperature by the addition of 50 μL of 80 mM EDTA, pH 7.5.

Chain of CDK6/Cyclin D1 (Q00534 whole entry): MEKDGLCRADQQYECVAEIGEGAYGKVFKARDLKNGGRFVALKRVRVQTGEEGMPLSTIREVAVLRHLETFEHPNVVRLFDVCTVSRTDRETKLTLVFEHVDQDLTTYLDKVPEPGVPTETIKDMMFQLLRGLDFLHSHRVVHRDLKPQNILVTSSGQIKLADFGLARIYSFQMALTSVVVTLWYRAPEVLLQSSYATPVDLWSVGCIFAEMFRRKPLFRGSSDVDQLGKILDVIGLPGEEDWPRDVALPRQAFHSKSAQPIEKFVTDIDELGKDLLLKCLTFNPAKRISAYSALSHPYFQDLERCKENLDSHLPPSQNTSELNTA
Chain of CDK6/Cyclin D1 (P24385 whole entry partner): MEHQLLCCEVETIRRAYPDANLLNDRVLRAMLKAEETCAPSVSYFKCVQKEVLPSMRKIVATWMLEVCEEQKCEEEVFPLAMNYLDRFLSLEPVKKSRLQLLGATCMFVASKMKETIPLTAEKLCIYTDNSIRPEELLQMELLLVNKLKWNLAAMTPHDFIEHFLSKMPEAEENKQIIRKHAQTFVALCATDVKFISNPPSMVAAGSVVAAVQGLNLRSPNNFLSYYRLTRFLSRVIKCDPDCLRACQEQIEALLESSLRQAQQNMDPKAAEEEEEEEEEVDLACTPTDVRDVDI

Row | SMILES | Ki (CDK6/Cyclin D1) | Ki (CDK2/Cyclin E1)
1 | C[C@H]1[C@@H](O)CC[C@@H]1n1c(=O)c(C(F)F)cc2cnc(NC3CCN(S(C)(=O)=O)CC3)nc21 (single isomer, unassigned) [Example 205, (+)-6-(difluoromethyl)-8-[(1 R*,2S*,3R*)-3-hydroxy-2-methylcyclopentyl]-2-{[1-(methylsulfonyl)piperidin-4-yl]amino}pyrido[2,3-d]pyrimidin-7(8H)-one] | 1.27 nM | 5.22 nM
2 | COC(C)(C)CNS(=O)(=O)N1CCC(Nc2ncc3ccc(=O)n([C@H]4CCC[C@]4(C)O)c3n2)CC1 (single isomer, unassigned) [Example 61, (+)-4-({8-[(1R*,2R*)-2-hydroxy-2-methylcyclopentyl]-7-oxo-7,8-dihydropyrido[2,3-d]pyrimidin-2-yl}amino)-N-(2-methoxy-2-methylpropyl)piperidine-1-sulfonamide] | 19.7 nM | 4.55 nM
3 | C[C@H]1[C@H](O)CC[C@H]1n1c(=O)ccc2cnc(NC3CCN(S(C)(=O)=O)CC3)nc21 (single isomer, unassigned) [Example 210, (−)-8-[(1R*,2R*,3R*)-3-hydroxy-2-methylcyclopentyl]-2-{[1-(methylsulfonyl)piperidin-4-yl]amino}pyrido[2,3-d]pyrimidin-7(8H)-one] | 3.15 nM | 5.36 nM
4 | CS(=O)(=O)N1CCC(Nc2ncc3ccc(=O)n([C@H]4CCC[C@H](O)C4)c3n2)CC1 [Example 211, 8-[(1S,3S)-3-hydroxycyclohexyl]-2-{[1-(methylsulfonyl)piperidin-4-yl]amino}pyrido[2,3-d]pyrimidin-7(8H)-one] | 2.22 nM | 2.19 nM
5 | CC(F)(F)CNS(=O)(=O)N1CCC(Nc2ncc3ccc(=O)n([C@H]4CCC[C@]4(C)O)c3n2)CC1 (single isomer, unassigned) [Example 67, (+)-N-(2,2-difluoropropyl)-4-({8-[(1R*,2R*)-2-hydroxy-2-methylcyclopentyl]-7-oxo-7,8-dihydropyrido[2,3-d]pyrimidin-2-yl}amino)piperidine-1-sulfonamide] | 21.6 nM | 4.05 nM
6 | C[C@@]1(O)CCC[C@H]1n1c(=O)ccc2cnc(NC3CCN(S(=O)(=O)C(F)(F)F)CC3)nc21 (single isomer, unassigned) [Example 88, (−)-8-[(1R*,2R*)-2-hydroxy-2-methylcyclopentyl]-2-({1-[(trifluoromethyl)sulfonyl]piperidin-4-yl}amino)pyrido[2,3-d]pyrimidin-7(8H)-one] | 1.99 nM | 1.34 nM
7 | COC(C)(C)CNS(=O)(=O)N1CCC(Nc2ncc3cc(C)c(=O)n([C@H]4CCC[C@]4(C)O)c3n2)CC1 (single isomer, unassigned) [Example 99, (+)-4-({8-[(1R*,2R*)-2-hydroxy-2-methylcyclopentyl]-6-methyl-7-oxo-7,8-dihydropyrido[2,3-d]pyrimidin-2-yl}amino)-N-(2-methoxy-2-methylpropyl)piperidine-1-sulfonamide] | 14.3 nM | 2.88 nM
8 | CNS(=O)(=O)N1CCC(Nc2ncc3cc(C(F)F)c(=O)n([C@@H]4CCC[C@@]4(C)O)c3n2)CC1 (single isomer, unassigned) [Example 130, (−)-4-({6-(difluoromethyl)-8-[(1R*,2R*)-2-hydroxy-2-methylcyclopentyl]-7-oxo-7,8-dihydropyrido[2,3-d]pyrimidin-2-yl}amino)-N-methylpiperidine-1-sulfonamide] | 0.43 nM | 0.17 nM

Now from value to compound:

Row | Ki (CDK6/Cyclin D1) | Ki (CDK2/Cyclin E1) | SMILES
9 | 1.63 nM | 1.47 nM | Cc1cc2cnc(NC3CCN(S(C)(=O)=O)CC3)nc2n([C@@H]2CC[C@@H](O)C2)c1=O (single isomer, unassigned) [Example 167, (−)-8-[(1R*,3R*)-3-hydroxycyclopentyl]-6-methyl-2-{[1-(methylsulfonyl)piperidin-4-yl]amino}pyrido[2,3-d]pyrimidin-7(8H)-one]
10 | 83.3 nM | 27.8 nM | CS(=O)(=O)N1CCC(Nc2ncc3cc(CC(N)=O)c(=O)n([C@H]4CCC[C@H](O)C4)c3n2)CC1 (single isomer, unassigned) [Example 214, (−)-2-(8-[(1R*,2R*)-3-hydroxycyclohexyl]-2-{[1-(methylsulfonyl)piperidin-4-yl]amino}-7-oxo-7,8-dihydropyrido[2,3-d]pyrimidin-6-yl)acetamide]
11 | 0.85 nM | 1.32 nM | Cc1cc2cnc(NC3CCN(S(=O)(=O)C(F)(F)F)CC3)nc2n([C@@H]2CCC[C@@]2(C)O)c1=O (single isomer, unassigned) [Example 181, (−)-8-[(1R*,2R*)-2-hydroxy-2-methylcyclopentyl]-6-methyl-2-({1-[(trifluoromethyl)sulfonyl]piperidin-4-yl}amino)pyrido[2,3-d]pyrimidin-7(8H)-one]
12 | 4.15 nM | 2.87 nM | Cc1cc2cnc(NC3CCN(S(=O)(=O)CC(F)(F)F)CC3)nc2n([C@H]2CCC[C@]2(C)O)c1=O (single isomer, unassigned) [Example 119, (+)-8-[(1R*,2R*)-2-hydroxy-2-methylcyclopentyl]-6-methyl-2-({1-[(2,2,2-trifluoroethyl)sulfonyl]piperidin-4-yl}amino)pyrido[2,3-d]pyrimidin-7(8H)-one]
13 | 4.68 nM | 5.49 nM | CC[C@@]1(O)CCC[C@H]1n1c(=O)c(Cl)cc2cnc(NC3CCN(S(C)(=O)=O)CC3)nc21 (single isomer, unassigned) [Example 195, (−)-6-chloro-8-[(1R*,2R*)-2-ethyl-2-hydroxycyclopentyl]-2-{[1-(methylsulfonyl)piperidin-4-yl]amino}pyrido[2,3-d]pyrimidin-7(8H)-one]
14 | 12.3 nM | 3.92 nM | CC1(C)CC(Nc2ncc3cc(CCO)c(=O)n(C4CCCC4)c3n2)CCN1S(C)(=O)=O (single isomer, unassigned; (+)) [Example 162, (+)-8-cyclopentyl-2-{[2,2-dimethyl-1-(methylsulfonyl)piperidin-4-yl]amino}-6-(2-hydroxyethyl)pyrido[2,3-d]pyrimidin-7(8H)-one]
15 | 6.6 nM | 4.07 nM | CCS(=O)(=O)N1CCC(Nc2ncc3ccc(=O)n([C@H]4CCC[C@]4(C)O)c3n2)CC1 (single isomer, unassigned) [Example 77, (+)-2-{[1-(ethylsulfonyl)piperidin-4-yl]amino}-8-[(1R*,2R*)-2-hydroxy-2-methylcyclopentyl]pyrido[2,3-d]pyrimidin-7(8H)-one]
16 | 1.09 nM | 2.92 nM | Cc1cc2cnc(NC3CCN(S(C)(=O)=O)CC3)nc2n([C@@H]2C[C@H](O)C[C@@H]2C)c1=O (single isomer, unassigned) [Example 199, (−)-8-[(1R*,2S*,4R*)-4-hydroxy-2-methylcyclopentyl]-6-methyl-2-{[1-(methylsulfonyl)piperidin-4-yl]amino}pyrido[2,3-d]pyrimidin-7(8H)-one]
17 | 0.06 nM | 0.06 nM | Cc1cc2cnc(NC3CCN(S(C)(=O)=O)CC3)nc2n([C@@H]2CCC[C@@H]2C)c1=O [Example 37, 6-methyl-8-[(1R,2S)-2-methylcyclopentyl]-2-{[1-(methylsulfonyl)piperidin-4-yl]amino}pyrido[2,3-d]pyrimidin-7(8H)-one]
18 | 1.11 nM | 2.76 nM | CS(=O)(=O)N1CCC(Nc2ncc3cc(Cl)c(=O)n([C@H]4CC[C@H](O)C4)c3n2)CC1 (single isomer, unassigned) [Example 169, (+)-6-chloro-8-[(1R*,3R*)-3-hydroxycyclopentyl]-2-{[1-(methylsulfonyl)piperidin-4-yl]amino}pyrido[2,3-d]pyrimidin-7(8H)-one]
